For seven compounds, IC50 results are on record in patent publication US11447489B2, “Dihydropyrimidinylthiazole for the treatment and prophylaxis of hepatitis B virus infection” (priority 2017, dated 2022).

Molecules are shown by their SMILES.

This test relates to HBsAg. Nature of the test: HepG2.2.15 cells primary screen assay: HBsAg assay (CLIA of secreted HBsAg). The settings on record: Hepatitis B virus. In kind it is cell-based, HBV. On the procedure: Example 23: HepG2.2.15 Cells Primary Screen Assay
HepG2.2.15 cells (Acs et al. Proc Natl Acad Sci USA, 84, (1987), 4641-4), a constitutively HBV-expressing cell line were cultured in DMEM+Glutamax-I medium (Invitrogen, Carlsbad, Calif., USA), supplemented with 10% fetal bovine serum (Invitrogen) and G418 (Invitrogen) at a final concentration of 200 mg/L and maintained in 5% CO2 at 37° C.
HepG2.2.15 cells were seeded in duplicate into white, 96-well plates at 1.5×10^4 cells/well. The cells were treated with a three-fold serial dilution series of the compounds in DMSO. The final DMSO concentration in all wells was 1% and DMSO was used as no drug control.
The HBsAg chemiluminescence immunoassay (CLIA) kit (Autobio Diagnostics Co., Zhengzhou, China, Catalog number: CL0310-2) was used to measure the levels of secreted HBV antigens semi-quantitatively. For the detection 50 μL/well culture supernatant was used and HBsAg was quantified using HBsAg chemiluminescence immunoassay (CLIA) kit (Autobio Diagnostics Co., Zhengzhou, China, Catalog number: CL0310-2), 50 μL of the supernatant was transferred to the CLIA assay plate and 50 μL of enzyme conjugate reagent was added into each well. The plates were sealed and gently agitated for 1 hour at room temperature. The supernatant-enzyme-mixture was discarded and wells were washed 6 times with 300 μL of PBS. The residual liquid was removed by plating the CLIA plate […] on absorbent tissue paper. 25 μL of substrates A and B were added to each well. Luminance was measured using a luminometer (Mithras LB 940 Multimode Microplate Reader) after 10 minutes incubation. Dose-response curves were generated and the IC50 value was extrapolated by using the E-WorkBook Suite (ID Business Solutions Ltd., Guildford, UK). The IC50 was defined as the compound concentration (or conditioned media log dilution) at which HBsAg secretion was reduced by 50% compared to the no drug control.
The compounds of the present invention were tested for their capacity to inhibit HBsAg as described herein.

On to `COC(=O)C1=C(CN2CCN(c3cc(F)cc(N4CCc5nc(-c6ncccn6)ncc5C4C)n3)C(C(=O)O)C2)NC(c2nccs2)=N[C@H]1c1ccc(F)cc1Cl` (stereo partly drawn) [Example 22, 4-[[(4R)-4-(2-chloro-4-fluoro-phenyl)-5-methoxycarbonyl-2-thiazol-2-yl-1,4-dihydropyrimidin-6-yl]methyl]-1-[4-fluoro-6-[5-methyl-2-pyrimidin-2-yl-7,8-dihydro-5H-pyrido[4,3-d]pyrimidin-6-yl]-2-pyridyl]piperazine-2-carboxylic Acid], for which the IC50 was determined as 618 nM. This counts as sub-micromolar.

Compound `COC(=O)C1=C(COc2cc(N3CCc4nc(-c5ncccn5)ncc4C3C)cc(F)c2F)NC(c2nccs2)=N[C@H]1c1ccc(F)cc1Cl` (stereo partly drawn) [Example 20, methyl (4R)-4-(2-chloro-4-fluoro-phenyl)-6-[[2,3-difluoro-5-(5-methyl-2-pyrimidin-2-yl-7,8-dihydro-5H-pyrido[4,3-d]pyrimidin-6-yl)phenoxy]methyl]-2-thiazol-2-yl-1,4-dihydropyrimidine-5-carboxylate] came in with an IC50 of 824 nM. The IC50 values of the last two compounds are within 1.5-fold of each other. As to `CCOC(=O)C1=C(COCCCCCCOc2cc3c(cc2OC)-c2cc(=O)c(C(=O)O)cn2C(C(C)(C)C)C3)NC(c2nccs2)=NC1c1ccc(F)cc1Cl` (stereo not shown) [Example 14, 6-tert-butyl-9-[6-[[4-(2-chloro-4-fluoro-phenyl)-5-ethoxycarbonyl-2-thiazol-2-yl-1,4-dihydropyrimidin-6-yl]methoxy]hexoxy]-10-methoxy-2-oxo-6,7-dihydrobenzo[a]quinolizine-3-carboxylic Acid], the midpoint of inhibition, the IC50, lay at 96 nM. `COC(=O)C1=C(CN2CCN(CCCCCCOc3cc4c(cc3OC)-c3cc(=O)c(C(=O)O)cn3C(C(C)(C)C)C4)CC2C(=O)O)NC(c2nccs2)=N[C@H]1c1ccc(F)cc1Cl` (stereo partly drawn) [Example 6, 6-tert-butyl-9-[6-[3-carboxy-4-[[(4R)-4-(2-chloro-4-fluoro-phenyl)-5-methoxycarbonyl-2-thiazol-2-yl-1,4-dihydropyrimidin-6-yl]methyl]piperazin-1-yl]hexoxy]-10-methoxy-2-oxo-6,7-dihydrobenzo[a]quinolizine-3-carboxylic Acid] displayed an IC50 of 262 nM. Under `COC(=O)C1=C(CN2CCOC[C@H]2C(=O)NCCOCCOCCOc2cc3c(cc2OC)-c2cc(=O)c(C(=O)O)cn2C(C(C)(C)C)C3)NC(c2nccs2)=N[C@H]1c1ccc(F)cc1Cl` (stereo partly drawn) [Example 10, 6-tert-butyl-9-[2-[2-[2-[[(3S)-4-[[(4R)-4-(2-chloro-4-fluoro-phenyl)-5-methoxycarbonyl-2-thiazol-2-yl-1,4-dihydropyrimidin-6-yl]methyl]morpholine-3-carbonyl]amino]ethoxy]ethoxy]ethoxy]-10-methoxy-2-oxo-6,7-dihydrobenzo[a]quinolizine-3-carboxylic Acid] stands 569 nM; under `CCOC(=O)C1=C(CN2CCN3C(=O)N(CC(C)(C)C(=O)NCCCCCCOc4cc5c(cc4OC)-c4cc(=O)c(C(=O)O)cn4C(C(C)(C)C)C5)C[C@@H]3C2)NC(c2nccs2)=N[C@H]1c1cccc(F)c1Cl` (stereo partly drawn) [Example 15, 9-[6-[[3-[(8aS)-7-[[(4R)-4-(2-chloro-3-fluoro-phenyl)-5-ethoxycarbonyl-2-thiazol-2-yl-1,4-dihydropyrimidin-6-yl]methyl]-3-oxo-5,6,8,8a-tetrahydro-1H-imidazo[1,5-a]pyrazin-2-yl]-2,2-dimethyl-propanoyl]amino]hexoxy]-6-tert-butyl-10-methoxy-2-oxo-6,7-dihydrobenzo[a]quinolizine-3-carboxylic Acid], 41 nM; under `COC(=O)C1=C(CN2CCN(CCOCCOCCOc3cc4c(cc3OC)-c3cc(=O)c(C(=O)O)cn3C(C(C)(C)C)C4)C(C(=O)O)C2)NC(c2nccs2)=N[C@H]1c1ccc(F)cc1Cl` (stereo partly drawn) [Example 11, 6-tert-butyl-9-[2-[2-[2-[2-carboxy-4-[[(4R)-4-(2-chloro-4-fluoro-phenyl)-5-methoxycarbonyl-2-thiazol-2-yl-1,4-dihydropyrimidin-6-yl]methyl]piperazin-1-yl]ethoxy]ethoxy]ethoxy]-10-methoxy-2-oxo-6,7-dihydrobenzo[a]quinolizine-3-carboxylic Acid], 6340 nM.
